Reference: ChEMBL document CHEMBL1201862, “PubChem BioAssay data set” (2004)
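All cell lines were grown in 96-well plates and treated with compound for 48 hours. GI50 marks 50% less growth.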 Calls of active or inactive are those of the source. No stated cut-off is given here; in the data, active = GI50 up to about 1.1 µM and inactive = higher.

Legend:
Assay in all cases: NCI tumour cell line growth inhibition, 48 h
[1] = test system: HCT-15
[2] = test system: SNB-78
[3] = test system: RXF 631
[4] = test system: SR
[5] = test system: KM12
[6] = test system: SNB-75
[7] = test system: UACC-257
[8] = test system: COLO 205
[9] = test system: HOP-62
[10] = test system: MOLT-4
[11] = test system: ACHN
[12] = test system: DLD-1
[13] = test system: KM-20L2
[14] = test system: NCI-H522
[15] = test system: SF-268
[16] = test system: TK-10
[17] = test system: A549
[18] = test system: OVCAR-4
[19] = test system: SK-MEL-5
[20] = test system: NCI-H460
[21] = test system: UO-31
[22] = test system: EKVX
[23] = test system: HOP-18
[24] = test system: M19-MEL
[25] = test system: HOP-92
[26] = test system: SNB-19
[27] = test system: SK-MEL-2
[28] = test system: OVCAR-3
[29] = test system: K562
[30] = test system: OVCAR-8
[31] = test system: SF-539
[32] = test system: SK-OV-3
[33] = test system: DMS-273
[34] = test system: XF498
[35] = test system: CAKI-1
[36] = test system: SK-MEL-28
[37] = test system: U-251
[38] = test system: M14
[39] = test system: HCT-116
[40] = test system: DMS-114
[41] = test system: SF-295
[42] = test system: RPMI-8226
[43] = test system: LXFL 529
[44] = test system: SW-620
[45] = test system: UACC-62
[46] = test system: HT-29
[47] = test system: Malme-3M
[48] = test system: NCI-H23
[49] = test system: HCC 2998
[50] = test system: LOX IMVI
[51] = test system: 786-0
[52] = test system: OVCAR-5
[53] = test system: CCRF-CEM
[54] = test system: HL-60
[55] = test system: IGROV-1
[56] = test system: SN12C
[57] = test system: RXF 393

NC(=O)NC1C(C(N)=O)N(Cc2ccccc2)C(=O)N1Cc1ccccc1 (stereo unspecified)
GI50 [1]: > 100 µM | GI50 [2]: > 100 µM (inactive) | GI50 [3]: > 100 µM (inactive) | GI50 [4]: > 100 µM (inactive) | GI50 [5]: > 100 µM (inactive) | GI50 [6]: > 100 µM (inactive) | GI50 [7]: > 100 µM (inactive) | GI50 [8]: > 100 µM (inactive) | GI50 [9]: > 100 µM (inactive) | GI50 [10]: > 100 µM (inactive) | GI50 [11]: > 100 µM (inactive) | GI50 [12]: > 100 µM (inactive) | GI50 [13]: 46 µM (inactive) | GI50 [14]: > 100 µM (inactive) | GI50 [15]: > 100 µM (inactive) | GI50 [16]: > 100 µM (inactive) | GI50 [17]: > 100 µM (inactive) | GI50 [18]: > 100 µM (inactive) | GI50 [19]: > 100 µM (inactive) | GI50 [20]: > 100 µM (inactive) | GI50 [21]: > 100 µM (inactive) | GI50 [22]: > 100 µM (inactive) | GI50 [23]: > 100 µM (inactive) | GI50 [24]: > 100 µM (inactive) | GI50 [25]: > 100 µM (inactive) | GI50 [26]: > 100 µM (inactive) | GI50 [27]: > 100 µM (inactive) | GI50 [28]: > 100 µM (inactive) | GI50 [29]: > 100 µM (inactive) | GI50 [30]: > 100 µM (inactive) | GI50 [31]: > 100 µM (inactive) | GI50 [32]: > 100 µM (inactive) | GI50 [33]: > 100 µM (inactive) | GI50 [34]: > 100 µM (inactive) | GI50 [35]: > 100 µM (inactive) | GI50 [36]: > 100 µM (inactive) | GI50 [37]: > 100 µM (inactive) | GI50 [38]: > 100 µM (inactive) | GI50 [39]: > 100 µM (inactive) | GI50 [40]: > 100 µM (inactive) | GI50 [41]: > 100 µM (inactive) | GI50 [42]: > 100 µM (inactive) | GI50 [43]: > 100 µM (inactive) | GI50 [44]: > 100 µM (inactive) | GI50 [45]: > 100 µM (inactive) | GI50 [46]: > 100 µM (inactive) | GI50 [47]: > 100 µM (inactive) | GI50 [48]: > 100 µM (inactive) | GI50 [49]: > 100 µM (inactive) | GI50 [50]: > 100 µM (inactive) | GI50 [51]: > 100 µM (inactive) | GI50 [52]: 40.7 µM (inactive) | GI50 [53]: > 100 µM (inactive) | GI50 [54]: > 100 µM (inactive) | GI50 [55]: > 100 µM (inactive)

CC(C)(C)C(=O)O[C@@H]1COC2C(O)COC21 (stereo partly specified)
GI50 [56]: > 100 µM (inactive) | GI50 [2]: > 100 µM (inactive) | GI50 [3]: > 100 µM (inactive) | GI50 [4]: > 100 µM (inactive) | GI50 [5]: > 100 µM (inactive) | GI50 [6]: > 100 µM (inactive) | GI50 [7]: > 100 µM (inactive) | GI50 [8]: > 100 µM (inactive) | GI50 [9]: > 100 µM (inactive) | GI50 [10]: 19.7 µM (inactive) | GI50 [11]: > 100 µM (inactive) | GI50 [12]: > 100 µM (inactive) | GI50 [14]: > 100 µM (inactive) | GI50 [15]: > 100 µM (inactive) | GI50 [16]: > 100 µM (inactive) | GI50 [17]: > 100 µM (inactive) | GI50 [18]: > 100 µM (inactive) | GI50 [19]: > 100 µM (inactive) | GI50 [20]: > 100 µM (inactive) | GI50 [21]: > 100 µM (inactive) | GI50 [23]: > 100 µM (inactive) | GI50 [24]: > 100 µM (inactive) | GI50 [25]: > 100 µM (inactive) | GI50 [26]: > 100 µM (inactive) | GI50 [28]: > 100 µM (inactive) | GI50 [29]: > 100 µM (inactive) | GI50 [30]: > 100 µM (inactive) | GI50 [31]: > 100 µM (inactive) | GI50 [33]: > 100 µM (inactive) | GI50 [34]: > 100 µM (inactive) | GI50 [35]: > 100 µM (inactive) | GI50 [36]: > 100 µM (inactive) | GI50 [37]: > 100 µM (inactive) | GI50 [38]: > 100 µM (inactive) | GI50 [39]: > 100 µM (inactive) | GI50 [40]: > 100 µM (inactive) | GI50 [41]: > 100 µM (inactive) | GI50 [43]: > 100 µM (inactive) | GI50 [44]: > 100 µM (inactive) | GI50 [45]: > 100 µM (inactive) | GI50 [46]: > 100 µM (inactive) | GI50 [57]: > 100 µM (inactive) | GI50 [47]: > 100 µM (inactive) | GI50 [48]: > 100 µM (inactive) | GI50 [49]: > 100 µM (inactive) | GI50 [50]: > 100 µM (inactive) | GI50 [51]: > 100 µM (inactive) | GI50 [52]: > 100 µM (inactive) | GI50 [53]: > 100 µM (inactive) | GI50 [54]: > 100 µM (inactive) | GI50 [55]: > 100 µM (inactive)
